Measurements taken from patent US20240124487A1, “BRANCHED MACROCYCLIC 4-(PYRAZOL-5-YL)-INDOLE DERIVATIVES AS INHIBITORS OF MCL-1” (JANSSEN PHARMACEUTICA NV, priority 2020, published 2024).

What was measured:
[1] = tested on: MOLP-8 human multiple myeloma cell line; test: MOLP8 Caspase-Glo 3/7 apoptosis induction assay; assay type: cell-based; conditions: MOLP-8 cells, 2 hours incubation at 37° C., averaged values over all runs on all batches
Text: MCL-1 is a regulator of apoptosis and is highly over-expressed in tumor cells that escape cell death. The assay evaluates the cellular potency of small-molecule compounds targeting regulators of the apoptosis pathway, primarily MCL-1, Bfl-1, Bcl-2, and other proteins of the Bcl-2 family. Protein-protein inhibitors disrupting the interaction of anti-apoptotic regulators with BH3-domain proteins initiate apoptosis.
The Caspase-Glo® 3/7 Assay is a luminescent assay that measures caspase-3 and -7 activities in purified enzyme preparations or cultures of adherent or suspension cells. The assay provides a proluminescent caspase-3/7 substrate, which contains the tetrapeptide sequence DEVD. This substrate is cleaved to release aminoluciferin, a substrate of luciferase used in the production of light. Addition of the single Caspase-Glo® 3/7 Reagent in an “add-mix-measure” format results in cell lysis, followed by caspase cleavage of the substrate and generation of a “glow-type” luminescent signal.
This assay uses the MOLP-8 human multiple myeloma cell line, which is sensitive to MCL-1 inhibition.
Materials: • Perkin Elmer Envision • Multidrop 384 and small volume dispensing cassettes • Centrifuge • Countess automated cell counter • Countess counting chamber slides • Assay plate: ProxiPlate-384 Plus, White 384-shallow well Microplate • Sealing tape: Topseal A plus • T175 culture flask
Cell cultures were maintained between 0.2 and 2.0×10^6 cells/mL. The cells were harvested by collection in 50 mL conical tubes. The cells were then pelleted at 500 g for 5 mins before removing supernatant and resuspension in fresh pre-warmed culture medium. The cells were counted and diluted as needed.
The assay reagent was prepared by transferring the buffer solution to the substrate vial and mixing. The solution may be stored for up to 1 week at 4° C. with negligible loss of signal.
Compounds were delivered in assay-ready plates (Proxiplate) and stored at −20° C.
Assays always include 1 reference compound plate containing reference compounds. The plates were spotted with 40 nL of compounds (0.5% DMSO final in cells; serial dilution; 30 μM highest conc. 1/3 dilution, 10 doses, duplicates). The compounds were used at room temperature and 4 μL of pre-warmed media was added to all wells except column 2 and 23. The negative control was prepared by adding 1% DMSO in media. The positive control was prepared by adding the appropriate positive control compound in final concentration of 60 μM in media. The plate was prepared by adding 4 μL negative control to column 23, 4 μL positive control to column 2 and 4 μL cell suspension to all wells in the plate. The plate with cells was then incubated at 37° C. for 2 hours. The assay signal reagent is the Caspase-Glo solution described above, and 8 μL was added to all wells. The plates were then sealed and measured after 30 minutes.
The activity of a test compound was calculated as percent change in apoptosis induction as follows: • LC=median of the Low Control values • =Central Reference in Screener • =DMSO • =0% • HC=Median of the High Control values • =Scale Reference in Screener • =30 μM of positive control • =100% apoptosis induction
% Effect (AC50)=100−((sample−LC)/(HC−LC))*100
% Control=(sample/HC)*100
% Control min=((sample−LC)/(HC−LC))*100

[2] = target: Myeloid Cell Leukemia 1 (Mcl-1) (Homo sapiens (Human), UniProt Q07820); test: Terbium labeled Mcl-1 HTRF binding assay (displacement of Cy5-labeled BIM BH3 peptide); conditions: 25 pM Tb-Mcl-1, 8 nM Cy5 Bim peptide, Ki=IC50/(1+[L]/Kd), [L]=8 nM, Kd=10 nM, read-out: TB-MCL1 Ki
Myeloid Cell Leukemia 1 (Mcl-1), sequence (Q07820 whole entry): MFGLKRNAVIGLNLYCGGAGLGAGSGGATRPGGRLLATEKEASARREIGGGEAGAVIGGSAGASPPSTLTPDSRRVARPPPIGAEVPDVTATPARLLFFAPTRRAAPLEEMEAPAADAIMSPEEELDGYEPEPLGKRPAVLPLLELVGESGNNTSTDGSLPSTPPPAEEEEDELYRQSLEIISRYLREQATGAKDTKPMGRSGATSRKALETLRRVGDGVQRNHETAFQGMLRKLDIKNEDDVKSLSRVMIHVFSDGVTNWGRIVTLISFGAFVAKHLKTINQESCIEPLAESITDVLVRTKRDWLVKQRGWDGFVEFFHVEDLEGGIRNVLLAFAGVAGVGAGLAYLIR
Experimental: Terbium labeled Myeloid Cell Leukemia 1 (Mcl-1) homogeneous time-resolved fluorescence (HTRF) binding assay utilizing the BIM BH3 peptide (H2N-(C/Cy5Mal) WIAQELRRIGDEFN-OH) as the binding partner for Mcl-1.
This assay evaluated inhibition of the BH3 domain: Mcl-1 interaction by measuring the displacement of Cy5-labeled BIM BH3 peptide (H2N—(C/Cy5Mal) WIAQELRRIGDEFN-OH) in the HTRF assay format.
The following assay and stock buffers were prepared for use in the assay: (a) Stock buffer: 10 mM Tris-HCl, pH=7.5+150 mM NaCl, filtered, sterilized, and stored at 4° C.; and (b) 1× assay buffer, where the following ingredients were added fresh to stock buffer: 2 mM dithiothreitol (DTT), 0.0025% Tween-20, 0.1 mg/mL bovine serum albumin (BSA). The 1×Tb-Mcl-1+Cy5 Bim peptide solution was prepared by diluting the protein stock solution using the 1× assay buffer (b) to 25 pM Tb-Mcl-1 and 8 nM Cy5 Bim peptide.
Using the Acoustic ECHO, 100 nL of 100× test compound(s) were dispensed into individual wells of a white 384-well Perkin Elmer Proxiplate, for a final compound concentration of 1× and final DMSO concentration of 1%. Inhibitor control and neutral control (NC, 100 nL of 100% DMSO) were stamped into columns 23 and 24 of assay plate, respectively. Into each well of the plate was then dispensed 10 μL of the 1×Tb-Mcl-1+Cy5 Bim peptide solution. The plate was centrifuged with a cover plate at 1000 rpm for 1 minute, then incubated for 60 minutes at room temperature with plates covered. The TR-FRET signal was read on an BMG PHERAStar FSX MicroPlate Reader at room temperature using the HTRF optic module (HTRF: excitation: 337 nm, light source: laser, emission A: 665 nm, emission B: 620 nm, integration start: 60 μs, integration time: 400 pts).
The BMG PHERAStar FSX MicroPlate Reader was used to measure fluorescence intensity at two emission wavelengths—665 nm and 620 nm—and report relative fluorescence units (RFU) for both emissions, as well as a ratio of the emissions (665 nm/620 nm)*10,000. The RFU values were normalized to percent inhibition as follows:
% inhibition=(((NC−IC)−(compound−IC))/(NC−IC))*100
where IC (inhibitor control, low signal)=mean signal of 1×Tb-MC1-1+Cy5 Bim peptide+inhibitor control or 100% inhibition of Mcl-1; NC (neutral control, high signal)=mean signal 1×Tb-MC1-1+Cy5 Bim peptide with DMSO only or 0% inhibition
An 11-point dose response curve was generated to determine IC50 values (using GenData) based on the following equation:
Y=Bottom+(Top−Bottom)/(1+10^((log IC50−X)*HillSlope))
where Y=% inhibition in the presence of X inhibitor concentration; Top=100% inhibition derived from the IC (mean signal of Mcl-1+inhibitor control); Bottom=0% inhibition derived from the NC (mean signal of Mcl-1+DMSO); Hillslope=Hill coefficient; and IC50=concentration of compound with 50% inhibition in relation to top/neutral control (NC).
In this assay [L]=8 nM and Kd=10 nM
Representative compounds of the present invention were tested according to the procedure as described above, with results as listed in the Table below (n.d. means not determined).

| Structure (SMILES) | AC50 [1] [nM] | Ki [2] [nM] | AC50 ([1]; Homo sapiens, MOLP-8, 2 h) [nM] |
| --- | --- | --- | --- |
| Cc1nn2c3c1-c1c(Cl)ccc4c1c(C)c(C(=O)O)n4CCCOc1cc(cc4cc(F)ccc14)CCc1cc(nn1C)CCC3OCC2 (centres unmarked) [Compound 29] | 146 | 0.302 |  |
| Cc1c(C(=O)O)n2c3ccc(Cl)c(c13)-c1c(nn(C)c1C)C(C)OCc1cc(n(C)n1)CCc1cc(c3ccc(F)cc3c1)OCCC2 (single isomer, unassigned) [Compound 18] | 35.4 | 0.01 |  |
| Cc1c(C(=O)O)n2c3ccc(Cl)c(c13)-c1c(nn(C)c1C)C(CC(C)O)OCc1cc(n(C)n1)CCc1cc(c3ccc(F)cc3c1)OCCC2 (single isomer, unassigned) [Compound 19] |  | 0.057 | 1210 |
| COCCOCCn1nc(C)c2c1C(C)OCc1cc(n(C)n1)CCc1cc(c3ccc(F)cc3c1)OCCCn1c(C(=O)O)c(C)c3c-2c(Cl)ccc31 (centres unmarked) [Compound 21] | 318 | 0.057 |  |
| Cc1c(C(=O)O)n2c3ccc(Cl)c(c13)-c1c(nn(C)c1C)C(CCCO)OCc1cc(n(C)n1)CCc1cc(c3ccc(F)cc3c1)OCCC2 (single isomer, unassigned) [Compound 10] | 1060 | 0.028 |  |
| Cc1c(C(=O)O)n2c3ccc(Cl)c(c13)-c1c(nn(C)c1C)C(CCO)OCc1cc(n(C)n1)CCc1cc(c3ccc(F)cc3c1)OCCC2 (centres unmarked) [Compound 6] |  | 0.009 | 52.7 |
| COCCCC1OCc2cc(n(C)n2)CCc2cc(c3ccc(F)cc3c2)OCCCn2c(C(=O)O)c(C)c3c(c(Cl)ccc32)-c2c1nn(C)c2C (single isomer, unassigned) [Compound 12] | 57.8 | 0.015 |  |
